Earlier results as cited in PMC9851200, “Multiparameter phenotypic screening for endogenous TFEB and TFE3 translocation identifies novel chemical series modulating lysosome function” (Autophagy, 2022).

Key:
Design in all cases: method as in original PKIS2 published data
[1] = target: kinases (KINOMEscan panel) (Homo sapiens, UniProt Q8TDR2); details: STK35; Published KINOMEscan; ref original PKIS2 published data; cited from earlier work
[2] = target: kinases (KINOMEscan panel) (Homo sapiens, UniProt P0C1S8); details: WEE2; Published KINOMEscan; ref original PKIS2 published data; cited from earlier work
[3] = target: T1, kinases (KINOMEscan panel) (Homo sapiens, UniProt Q8WTQ7); details: kinase GRK7; Published KINOMEscan; ref original PKIS2 published data; cited from earlier work
T1 sequence (Q8WTQ7 1-553): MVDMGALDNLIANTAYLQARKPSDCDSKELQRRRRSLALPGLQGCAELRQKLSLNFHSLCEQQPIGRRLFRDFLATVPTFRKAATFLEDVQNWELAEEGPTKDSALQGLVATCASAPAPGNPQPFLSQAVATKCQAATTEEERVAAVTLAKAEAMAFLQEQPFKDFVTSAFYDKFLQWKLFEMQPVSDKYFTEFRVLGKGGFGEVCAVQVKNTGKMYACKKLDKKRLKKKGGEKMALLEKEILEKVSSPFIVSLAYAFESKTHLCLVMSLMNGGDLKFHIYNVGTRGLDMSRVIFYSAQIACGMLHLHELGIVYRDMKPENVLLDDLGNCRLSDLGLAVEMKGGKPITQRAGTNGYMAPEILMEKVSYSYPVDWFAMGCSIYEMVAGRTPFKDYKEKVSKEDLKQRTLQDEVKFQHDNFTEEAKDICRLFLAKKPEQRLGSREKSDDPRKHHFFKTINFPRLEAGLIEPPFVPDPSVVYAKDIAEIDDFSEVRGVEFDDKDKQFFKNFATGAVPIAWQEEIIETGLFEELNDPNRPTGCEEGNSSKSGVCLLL

[4] = target: kinases (KINOMEscan panel) (Homo sapiens, UniProt Q02779); details: kinase MAP3K10; Published KINOMEscan; ref original PKIS2 published data; cited from earlier work
[5] = target: kinases (KINOMEscan panel) (Homo sapiens, UniProt P78368); details: kinase CSNK1G2; Published KINOMEscan; ref original PKIS2 published data; cited from earlier work
[6] = target: kinases (KINOMEscan panel) (Homo sapiens, UniProt P07332); details: kinase FES; Published KINOMEscan; ref original PKIS2 published data; cited from earlier work
[7] = target: kinases (KINOMEscan panel) (Homo sapiens, UniProt O60674); details: JAK2(JH1domain-catalytic); Published KINOMEscan; ref original PKIS2 published data; cited from earlier work
[8] = target: T2, kinases (KINOMEscan panel) (Homo sapiens, UniProt Q9UQB9); details: AURKC; Published KINOMEscan; ref original PKIS2 published data; cited from earlier work
T2 sequence (Q9UQB9 1-309): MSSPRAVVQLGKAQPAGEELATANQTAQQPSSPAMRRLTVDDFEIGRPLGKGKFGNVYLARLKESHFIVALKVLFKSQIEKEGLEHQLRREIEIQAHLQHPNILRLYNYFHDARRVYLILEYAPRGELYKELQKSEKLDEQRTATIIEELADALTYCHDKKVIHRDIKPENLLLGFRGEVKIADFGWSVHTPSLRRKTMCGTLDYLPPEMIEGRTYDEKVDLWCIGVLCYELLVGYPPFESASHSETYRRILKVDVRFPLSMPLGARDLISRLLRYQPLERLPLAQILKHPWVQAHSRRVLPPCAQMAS

[9] = target: T3, kinases (KINOMEscan panel) (Homo sapiens, UniProt Q16566); details: CAMK4; Published KINOMEscan; ref original PKIS2 published data; cited from earlier work
T3 sequence (Q16566 1-473): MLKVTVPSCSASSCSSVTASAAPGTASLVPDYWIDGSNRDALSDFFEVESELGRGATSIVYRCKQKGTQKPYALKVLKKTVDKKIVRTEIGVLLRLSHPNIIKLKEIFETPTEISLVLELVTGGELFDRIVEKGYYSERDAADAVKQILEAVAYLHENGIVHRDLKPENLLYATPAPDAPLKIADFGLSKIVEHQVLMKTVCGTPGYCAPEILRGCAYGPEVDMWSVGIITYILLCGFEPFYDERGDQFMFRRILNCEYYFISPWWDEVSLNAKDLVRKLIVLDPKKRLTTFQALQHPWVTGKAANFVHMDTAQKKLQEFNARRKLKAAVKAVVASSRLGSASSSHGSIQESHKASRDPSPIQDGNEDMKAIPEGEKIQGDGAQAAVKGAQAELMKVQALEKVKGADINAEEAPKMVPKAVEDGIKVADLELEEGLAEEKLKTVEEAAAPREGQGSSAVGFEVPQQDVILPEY

[10] = target: kinases (KINOMEscan panel) (Homo sapiens, UniProt Q99558); details: kinase MAP3K14; Published KINOMEscan; ref original PKIS2 published data; cited from earlier work
[11] = target: kinases (KINOMEscan panel) (Homo sapiens, UniProt Q9BX84); details: TRPM6; Published KINOMEscan; ref original PKIS2 published data; cited from earlier work
[12] = target: kinases (KINOMEscan panel) (Homo sapiens, UniProt P35590); details: TIE1; Published KINOMEscan; ref original PKIS2 published data; cited from earlier work

Sequence of kinases (KINOMEscan panel) (Homo sapiens, UniProt Q9BX84) (Q9BX84 whole entry): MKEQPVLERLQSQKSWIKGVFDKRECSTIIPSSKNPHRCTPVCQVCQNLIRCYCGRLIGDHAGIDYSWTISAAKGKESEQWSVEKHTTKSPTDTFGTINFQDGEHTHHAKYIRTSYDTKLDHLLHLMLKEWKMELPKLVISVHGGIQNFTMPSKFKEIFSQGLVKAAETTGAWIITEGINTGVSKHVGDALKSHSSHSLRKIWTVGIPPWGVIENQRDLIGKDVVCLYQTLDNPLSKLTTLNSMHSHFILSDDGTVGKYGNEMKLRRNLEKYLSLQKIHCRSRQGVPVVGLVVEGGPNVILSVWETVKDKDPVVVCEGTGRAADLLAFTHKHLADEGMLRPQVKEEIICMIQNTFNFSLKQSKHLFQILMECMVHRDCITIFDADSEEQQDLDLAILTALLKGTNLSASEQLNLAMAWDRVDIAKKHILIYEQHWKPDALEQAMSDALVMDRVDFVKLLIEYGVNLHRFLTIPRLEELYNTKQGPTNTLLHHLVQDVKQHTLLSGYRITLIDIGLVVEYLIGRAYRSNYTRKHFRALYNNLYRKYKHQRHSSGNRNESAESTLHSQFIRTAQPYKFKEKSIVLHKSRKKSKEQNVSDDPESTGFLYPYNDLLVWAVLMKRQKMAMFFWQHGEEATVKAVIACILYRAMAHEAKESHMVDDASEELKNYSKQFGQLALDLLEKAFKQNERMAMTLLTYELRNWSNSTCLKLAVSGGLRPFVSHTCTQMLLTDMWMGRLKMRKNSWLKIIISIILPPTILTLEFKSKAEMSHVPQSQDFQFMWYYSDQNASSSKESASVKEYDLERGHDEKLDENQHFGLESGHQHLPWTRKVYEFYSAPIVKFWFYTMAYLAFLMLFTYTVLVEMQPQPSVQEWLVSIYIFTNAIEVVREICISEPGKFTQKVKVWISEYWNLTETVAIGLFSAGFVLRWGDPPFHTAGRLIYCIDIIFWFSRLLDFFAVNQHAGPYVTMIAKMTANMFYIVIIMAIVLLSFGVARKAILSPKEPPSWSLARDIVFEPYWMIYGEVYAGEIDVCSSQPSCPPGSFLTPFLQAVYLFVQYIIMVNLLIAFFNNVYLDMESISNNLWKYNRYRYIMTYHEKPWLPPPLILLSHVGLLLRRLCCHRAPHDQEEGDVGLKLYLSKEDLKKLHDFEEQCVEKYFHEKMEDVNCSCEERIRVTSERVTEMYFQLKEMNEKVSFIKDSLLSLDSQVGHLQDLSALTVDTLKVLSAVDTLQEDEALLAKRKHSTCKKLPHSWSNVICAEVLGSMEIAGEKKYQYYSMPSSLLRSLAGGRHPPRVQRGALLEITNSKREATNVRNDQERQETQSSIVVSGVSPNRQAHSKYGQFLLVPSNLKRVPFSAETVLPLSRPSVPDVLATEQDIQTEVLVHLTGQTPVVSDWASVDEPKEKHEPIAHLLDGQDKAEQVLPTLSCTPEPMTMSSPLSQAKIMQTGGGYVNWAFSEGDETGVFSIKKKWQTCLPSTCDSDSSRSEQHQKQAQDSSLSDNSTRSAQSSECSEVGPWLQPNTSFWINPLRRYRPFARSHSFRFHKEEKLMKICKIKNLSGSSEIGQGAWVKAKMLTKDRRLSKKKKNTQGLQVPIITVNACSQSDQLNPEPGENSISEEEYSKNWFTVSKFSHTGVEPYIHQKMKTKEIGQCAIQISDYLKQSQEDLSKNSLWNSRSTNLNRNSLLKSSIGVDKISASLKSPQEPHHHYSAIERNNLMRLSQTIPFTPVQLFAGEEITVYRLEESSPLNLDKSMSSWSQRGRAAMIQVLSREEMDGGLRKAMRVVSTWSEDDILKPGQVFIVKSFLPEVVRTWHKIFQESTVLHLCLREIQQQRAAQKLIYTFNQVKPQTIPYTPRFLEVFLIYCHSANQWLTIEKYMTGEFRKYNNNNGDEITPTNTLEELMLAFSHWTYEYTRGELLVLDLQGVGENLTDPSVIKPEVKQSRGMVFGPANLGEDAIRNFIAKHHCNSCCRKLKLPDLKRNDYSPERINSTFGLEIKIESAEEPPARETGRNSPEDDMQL
Sequence of kinases (KINOMEscan panel) (Homo sapiens, UniProt O60674) (O60674 whole entry): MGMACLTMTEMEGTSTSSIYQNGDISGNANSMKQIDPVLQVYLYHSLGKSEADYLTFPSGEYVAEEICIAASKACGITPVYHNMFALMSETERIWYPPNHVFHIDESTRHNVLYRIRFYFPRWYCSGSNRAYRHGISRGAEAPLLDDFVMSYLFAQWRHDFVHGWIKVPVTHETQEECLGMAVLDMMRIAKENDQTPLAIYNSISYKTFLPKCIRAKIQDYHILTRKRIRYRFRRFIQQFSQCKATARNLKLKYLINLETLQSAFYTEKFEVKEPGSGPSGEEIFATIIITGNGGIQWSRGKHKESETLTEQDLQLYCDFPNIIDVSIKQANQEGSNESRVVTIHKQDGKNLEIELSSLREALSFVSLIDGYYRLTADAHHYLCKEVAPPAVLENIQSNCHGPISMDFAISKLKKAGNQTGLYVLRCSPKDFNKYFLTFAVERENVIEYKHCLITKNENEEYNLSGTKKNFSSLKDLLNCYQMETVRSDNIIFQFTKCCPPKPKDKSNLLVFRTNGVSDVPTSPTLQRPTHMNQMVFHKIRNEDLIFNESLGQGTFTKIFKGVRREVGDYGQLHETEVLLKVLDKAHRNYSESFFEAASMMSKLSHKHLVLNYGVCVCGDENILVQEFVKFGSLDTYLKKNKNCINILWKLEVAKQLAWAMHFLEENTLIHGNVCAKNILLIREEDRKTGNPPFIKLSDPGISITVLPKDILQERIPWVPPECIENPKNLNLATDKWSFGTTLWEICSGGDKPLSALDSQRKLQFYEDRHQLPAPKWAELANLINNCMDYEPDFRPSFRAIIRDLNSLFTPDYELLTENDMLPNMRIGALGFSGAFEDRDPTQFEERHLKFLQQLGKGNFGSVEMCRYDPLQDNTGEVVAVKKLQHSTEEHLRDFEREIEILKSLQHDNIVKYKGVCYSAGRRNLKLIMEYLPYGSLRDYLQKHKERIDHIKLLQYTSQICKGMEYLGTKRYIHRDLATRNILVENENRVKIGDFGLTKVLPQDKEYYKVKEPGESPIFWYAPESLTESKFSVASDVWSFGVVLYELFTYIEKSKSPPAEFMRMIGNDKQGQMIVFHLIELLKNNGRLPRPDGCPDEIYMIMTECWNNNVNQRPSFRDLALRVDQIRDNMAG
Sequence of kinases (KINOMEscan panel) (Homo sapiens, UniProt Q99558) (Q99558 whole entry): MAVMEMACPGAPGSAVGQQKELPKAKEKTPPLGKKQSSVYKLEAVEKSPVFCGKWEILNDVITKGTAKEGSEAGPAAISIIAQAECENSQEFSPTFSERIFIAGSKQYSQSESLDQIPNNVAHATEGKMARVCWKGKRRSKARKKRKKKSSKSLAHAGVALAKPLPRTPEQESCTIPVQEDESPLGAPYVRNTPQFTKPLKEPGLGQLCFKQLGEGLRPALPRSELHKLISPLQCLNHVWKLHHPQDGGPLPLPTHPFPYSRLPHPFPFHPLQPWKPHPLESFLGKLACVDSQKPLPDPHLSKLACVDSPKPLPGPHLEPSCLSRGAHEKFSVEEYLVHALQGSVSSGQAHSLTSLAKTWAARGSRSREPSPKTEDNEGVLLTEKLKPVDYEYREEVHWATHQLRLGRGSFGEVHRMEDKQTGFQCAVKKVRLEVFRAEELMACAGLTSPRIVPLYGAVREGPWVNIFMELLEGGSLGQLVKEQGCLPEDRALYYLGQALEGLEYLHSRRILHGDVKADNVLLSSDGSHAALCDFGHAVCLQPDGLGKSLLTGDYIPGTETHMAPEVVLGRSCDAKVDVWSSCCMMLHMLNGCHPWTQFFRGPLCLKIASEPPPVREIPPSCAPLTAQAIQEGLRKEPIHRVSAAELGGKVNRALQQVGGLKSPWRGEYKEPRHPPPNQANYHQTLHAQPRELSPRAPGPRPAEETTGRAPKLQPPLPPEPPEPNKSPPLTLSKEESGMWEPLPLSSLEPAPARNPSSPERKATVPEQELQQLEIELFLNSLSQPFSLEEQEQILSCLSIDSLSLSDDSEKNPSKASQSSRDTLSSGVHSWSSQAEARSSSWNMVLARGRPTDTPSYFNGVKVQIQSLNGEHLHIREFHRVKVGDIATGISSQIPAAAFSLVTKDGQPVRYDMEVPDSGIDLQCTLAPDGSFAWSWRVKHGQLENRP
Sequence of kinases (KINOMEscan panel) (Homo sapiens, UniProt P0C1S8) (P0C1S8 whole entry): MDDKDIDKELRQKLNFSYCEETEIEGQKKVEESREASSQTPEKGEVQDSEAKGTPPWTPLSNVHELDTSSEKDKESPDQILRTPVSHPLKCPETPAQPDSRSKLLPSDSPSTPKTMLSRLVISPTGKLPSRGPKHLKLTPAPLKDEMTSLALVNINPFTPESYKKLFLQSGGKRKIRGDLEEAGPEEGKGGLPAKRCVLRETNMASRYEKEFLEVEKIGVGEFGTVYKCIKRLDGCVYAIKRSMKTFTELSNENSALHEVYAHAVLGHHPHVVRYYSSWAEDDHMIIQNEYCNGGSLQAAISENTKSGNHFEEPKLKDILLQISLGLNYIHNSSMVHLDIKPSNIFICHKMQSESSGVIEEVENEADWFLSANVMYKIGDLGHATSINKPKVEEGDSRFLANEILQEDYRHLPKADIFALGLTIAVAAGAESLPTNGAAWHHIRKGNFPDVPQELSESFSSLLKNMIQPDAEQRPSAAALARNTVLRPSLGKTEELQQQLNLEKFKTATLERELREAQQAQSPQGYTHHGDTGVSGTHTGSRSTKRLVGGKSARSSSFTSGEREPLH
Sequence of kinases (KINOMEscan panel) (Homo sapiens, UniProt P78368) (P78368 whole entry): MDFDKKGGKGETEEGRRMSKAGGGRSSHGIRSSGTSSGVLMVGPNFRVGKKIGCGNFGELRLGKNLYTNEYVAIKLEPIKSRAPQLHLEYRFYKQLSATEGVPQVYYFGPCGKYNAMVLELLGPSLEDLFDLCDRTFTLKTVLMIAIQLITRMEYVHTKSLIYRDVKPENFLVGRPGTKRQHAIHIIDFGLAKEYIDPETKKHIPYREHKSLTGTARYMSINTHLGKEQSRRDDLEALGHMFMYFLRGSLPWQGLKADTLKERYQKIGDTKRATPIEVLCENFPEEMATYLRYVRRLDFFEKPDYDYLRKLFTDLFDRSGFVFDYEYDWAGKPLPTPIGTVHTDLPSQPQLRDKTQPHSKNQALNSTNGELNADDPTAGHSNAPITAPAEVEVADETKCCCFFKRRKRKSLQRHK

Cc1cccc(-c2nc(Nc3ccncc3)c3ccccc3n2)n1 [NK215]
KINOMEscan STK35 [1]: 0
KINOMEscan WEE2 [2]: 8
KINOMEscan GRK7 [3]: 0
KINOMEscan MAP3K10 [4]: 7
KINOMEscan CSNK1G2 [5]: 20
KINOMEscan FES [6]: 13
KINOMEscan JAK2(JH1domain-catalytic) [7]: 0
KINOMEscan AURKC [8]: 0
KINOMEscan CAMK4 [9]: 47
KINOMEscan MAP3K14 [10]: 0
KINOMEscan TRPM6 [11]: 0
KINOMEscan TIE1 [12]: 20
